Tests used:
Format in all cases: in vitro ADME
[1] = molecular target: T1, CYP2C9 (Homo sapiens, UniProt P11712); experiment: Chemical inhibition of CRV431 loss in human liver microsomes: CYP2C9; parameters: tissue Sekisui Xenotech, Kansas City, MO, USA; host or cells: human liver microsomes; conditions: pH 7.4, probe CRV431 (1 μM; loss of parent), metabolism-dependent inhibitor, 30 min pre-incubation
Method: (§1) This experiment was carried out manually to verify the role of individual CYP enzymes in the metabolism of CRV431. […] Incubations were conducted at 37 ± 1 °C in 0.2 mL incubation mixtures (final volume) containing potassium phosphate buffer (50 mM, pH 7.4), MgCl2 (3 mM) and EDTA (1 mM, pH 7.4), with an NADPH-generating system as cofactor. The NADPH-generating system consisted of NADP (1 mM, pH 7.4), glucose-6-phosphate (5 mM, pH 7.4), and glucose-6-phosphate dehydrogenase (1 Unit/mL). CRV431 was added to the incubation mixtures in DMSO (0.1% v/v). For incubations with direct-acting chemical inhibitors, reactions were initiated by the addition of cofactor, and stopped by the addition of an equal volume of acetonitrile stop reagent. For incubations with metabolism-dependent chemical inhibitors, 30 min pre-incubations of human liver microsomes and the inhibitor were initiated by the addition of the cofactor. CRV431 was then added to the mixture to be incubated for 15 min. Reactions were stopped by the addition of an equal volume of acetonitrile stop reagent. Samples were analyzed by LC-MS/MS to quantify the amount of unchanged CRV431. Control samples with no CYP inhibitor present were conducted in the presence of the solvent used to dissolve the CYP inhibitor (“solvent control”).
(§2) Samples were analyzed by LC-MS/MS on a SCIEX 4000 QTrap mass spectrometer (Sciex, Rewood City, CA, USA). […]

[2] = Metabolic stability of CRV431 in human liver microsomes
Method: Incubations of CRV431 (1 and 10 μM) with pooled human liver microsomes (1 mg protein/mL) were conducted for 30 min. […] CRV431 was added to incubations in DMSO (0.1% v/v). Additional incubations of CRV431 (1 and 10 μM) with human liver microsomes (1 mg protein/mL) were carried out at 0, 15, 30, 60, and 120 min. Reactions were initiated by the addition of the NADPH-generating system, and were stopped by the addition of 175 μL of acetonitrile. The samples were centrifuged (920× g for 10 min at 10 °C), and the supernatant fractions were analyzed by LC-MS/MS (Sciex, Redwood City, CA, USA) to quantify the amount of unchanged CRV431 based on a calibration curve (ranging from 0.01 to 15 μM). Zero-time, zero-cofactor (no NADPH), zero-substrate, and zero-protein served as blanks.
(§3) The electrospray voltage was set at 4500 volts.

[3] = molecular target: T2, recombinant human CYP1A2 (Homo sapiens, UniProt P05177); experiment: Metabolism by recombinant human CYP enzymes: CYP1A2; conditions: CRV431 1 μM; 50 pmol CYP/mL; 15 min
T2 construct: purchased Sekisui Xenotech, Kansas City, MO, USA
T2 sequence (P05177 1-516): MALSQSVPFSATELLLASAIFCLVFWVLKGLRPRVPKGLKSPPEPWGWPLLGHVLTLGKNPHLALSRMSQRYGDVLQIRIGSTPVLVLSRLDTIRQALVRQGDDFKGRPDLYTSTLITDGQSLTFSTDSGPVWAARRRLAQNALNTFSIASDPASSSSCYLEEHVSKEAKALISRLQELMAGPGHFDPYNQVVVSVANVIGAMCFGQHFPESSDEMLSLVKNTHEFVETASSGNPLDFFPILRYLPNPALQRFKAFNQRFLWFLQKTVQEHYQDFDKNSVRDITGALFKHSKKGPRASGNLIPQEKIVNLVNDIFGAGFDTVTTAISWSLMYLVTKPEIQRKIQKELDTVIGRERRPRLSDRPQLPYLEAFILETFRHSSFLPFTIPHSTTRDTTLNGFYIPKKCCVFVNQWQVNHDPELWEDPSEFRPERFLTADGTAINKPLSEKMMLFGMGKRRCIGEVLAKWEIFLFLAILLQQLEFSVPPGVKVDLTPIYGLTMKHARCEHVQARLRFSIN
Method: (§4) This experiment was carried out to determine the cytochrome P450 (CYP) enzymes capable of metabolizing CRV431. […] Reactions were initiated by the addition of cofactor, and were terminated at zero and 15 min by the addition of 175 μL ice-cold methanol.
as §3

[4] = molecular target: T3, recombinant human CYP2C19 (Homo sapiens, UniProt P33261); experiment: Metabolism by recombinant human CYP enzymes: CYP2C19; conditions: CRV431 1 μM; 50 pmol CYP/mL; 15 min
T3 construct: purchased Sekisui Xenotech, Kansas City, MO, USA
Method: as §4, §3

[5] = molecular target: T4, recombinant human CYP2D6 (Homo sapiens, UniProt P10635); experiment: Metabolism by recombinant human CYP enzymes: CYP2D6; conditions: CRV431 1 μM; 50 pmol CYP/mL; 15 min
T4 construct: purchased Sekisui Xenotech, Kansas City, MO, USA
Method: as §4, §3

[6] = molecular target: T5, recombinant human CYP3A4 (Homo sapiens, UniProt P08684); experiment: Metabolism by recombinant human CYP enzymes: CYP3A4; conditions: 50 pmol CYP/mL, 15 min
T5 construct: purchased Sekisui Xenotech, Kansas City, MO, USA
Method: as §4, §3

[7] = Recombinant CYP panel: incubation with control bactosomes; conditions: CRV431 1 μM, 15 min
Method: as §4, §3

[8] = system: other recombinant human CYP enzymes; experiment: Metabolism by the other recombinant human CYP enzymes evaluated; conditions: CRV431 1 and 10 μM; the CYP enzymes of the panel not given; 15 min
Method: as §4, §3

[9] = CRV431 metabolite profile in human liver microsomes (ESI-LCMS); conditions: pH 7.4; for Amount of CRV431 remaining: microsomes, 1 μg/mL
Method: (§5) Human and rat liver microsomes were obtained from Xenotech (Kansas City, MO, USA) and stored at −80 °C. Monkey liver microsomes were obtained from Thermo Fisher Scientific (Waltham, MA, USA) and stored at −80 °C. Preliminary microsomal biotransformation experiments were run with 0.1, 1, and 10 μg/mL CRV431. CRV431 biotransformation was minimal at 0.1 μg/mL, while both 1 and 10 μg/mL CRV431 gave sufficient metabolite quantity and identical metabolite profiles. Additionally, preliminary experiments were conducted with human liver microsome (HLM) levels ranging for 0.125 to 1 mg. Subsequent microsomal biotransformation experiments were conducted using 0.5 mg of microsome per assay.
(§6) Thawed microsome 20 mg/mL stocks were diluted 32× into cold buffer (Phosphate pH 7.4 + MgCl2 3 mM + EDTA 1 mM) to 0.625 mg/mL, and stored on ice. For experiments with CRV431, 2 μL of […] stocks were added to cold 1-mL microsomes (500× dilution) to generate the 1 μg/mL samples. […]. Samples were mixed by vortexing, and 160 μL was transferred into tubes containing 40 μL buffer on ice. Metabolic activity was stopped by the addition of ice-cold methanol (200 μL), followed by vortexing for an additional 10 s; these were zero-time samples. The extraction was completed by waiting 5 min, vortexing samples again for 5 s, then spinning the samples for 10 min at 3300 rpm at 4 °C in a pre-cooled microcentrifuge. The supernatant (325 μL) was transferred to new tubes and stored at −80 °C.
(§7) For time course experiments, metabolism was initiated by adding 40 μL of NADPH Regenerating System (5 mg/mL NADP, 6.5 mg/mL G6P and 5 units/mL of G6P dehydrogenase). The sample was vortexed for 2 s and placed in a 37 °C bath. For CRV431 experiments at time points 10 min, 20 min, 40 min, and 80 min, 200 μL of ice-cold methanol was added to the 200 μL microsome reactions, and extracted as described above. Samples were stored at −80 °C. For verapamil experiments at 15 min, 200 μL of ice-cold methanol was added to the 200 μL microsome reactions and extracted as described above. Samples were stored at −80 °C.
(§8) Microsome extracts were removed from the freezer (−80 °C) and left to thaw at room temperature. Aliquots (50 μL) were removed and placed in 2 mL plastic Eppendorf microcentrifuge tubes, to which 200 μL of a 0.2 M ZnSO4 solution (0.2 M ZnSO4 in water, plus HPLC grade methanol, 1:4, v/v) was added as protein precipitating reagent. The tubes were capped and vortexed for 10 s, and then left on the benchtop for 10 min. Samples were then centrifuged at 3300 rpm for 10 min. The clear supernatant (≈150 μL) was transferred to an appropriately labeled LC-MS autosampler vial and capped.
(§9) Samples were analyzed by electrospray ionization liquid chromatography mass spectrometry (ESI-LCMS) on an Agilent HP 1100 LC-MS. Samples were placed in an autosampler maintained at 5 °C. CRV431 microsomal extracts (20 μL) were injected onto a Zorbax SB-C18 reverse phase HPLC column (1.8 μm Rapid Resolution HT Cartridge, 4.6 × 30 mm (Agilent, Santa Clara, CA, USA) maintained at 75 °C, and the components were separated using an acetonitrile–water gradient system (Table 2). The sodium adducts of CRV431 (1326 m/z) and metabolites were analyzed by mass spectrometry (MS) using electrospray ionization (ESI) in positive ion mode. The ESI–MS was optimized with N2 gas temperature set at 350 °C and drying gas at […]. The fragmentor and capillary voltages were set at 260 and 4000 volts, respectively. The nebulizer pressure was set at 40 psig. For the initial analysis of the microsomal extracts, the ESI–MS was run in scan mode (1260–1460 m/z) to capture all ion signals present. Subsequently, the microsomal extracts were run in selected ion mode (SIM), with the ions identified in the scans.

[10] = CRV431 metabolite profile in monkey liver microsomes (ESI-LCMS)
Method: as §5, §6, §7, §8, §9

[11] = CRV431 metabolite profile in rat liver microsomes (ESI-LCMS); conditions: Sprague-Dawley, pH 7.4
Method: as §5, §6, §7, §8, §9

[12] = molecular target: T1, CYP2C9; experiment: Metabolism by recombinant human CYP enzymes: CYP2C9; parameters: purchased Sekisui Xenotech, Kansas City, MO, USA; conditions: 50 pmol CYP/mL, 15 min
Method: as §4, §3

[13] = system: CYP2C19; experiment: Chemical inhibition of CRV431 loss in human liver microsomes: CYP2C19; conditions: pH 7.4, probe CRV431 (1 μM; loss of parent), metabolism-dependent inhibitor (also inhibits CYP3A4/5), 30 min pre-incubation
Method: as §1, §2

T1 sequence (P11712 whole entry): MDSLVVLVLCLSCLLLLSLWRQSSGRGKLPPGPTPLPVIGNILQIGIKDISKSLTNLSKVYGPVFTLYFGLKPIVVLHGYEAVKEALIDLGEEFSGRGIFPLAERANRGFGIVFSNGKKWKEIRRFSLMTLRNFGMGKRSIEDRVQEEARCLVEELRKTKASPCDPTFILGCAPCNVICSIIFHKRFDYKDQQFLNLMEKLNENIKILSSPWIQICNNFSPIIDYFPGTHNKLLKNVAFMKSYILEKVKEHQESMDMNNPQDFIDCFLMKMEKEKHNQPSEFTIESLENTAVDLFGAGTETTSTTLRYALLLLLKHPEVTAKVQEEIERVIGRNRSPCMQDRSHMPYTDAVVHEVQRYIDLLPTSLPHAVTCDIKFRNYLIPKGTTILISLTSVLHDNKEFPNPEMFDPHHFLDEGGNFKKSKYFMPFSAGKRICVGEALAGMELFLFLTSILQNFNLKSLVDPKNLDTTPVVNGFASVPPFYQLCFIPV
T5 sequence (P08684 whole entry): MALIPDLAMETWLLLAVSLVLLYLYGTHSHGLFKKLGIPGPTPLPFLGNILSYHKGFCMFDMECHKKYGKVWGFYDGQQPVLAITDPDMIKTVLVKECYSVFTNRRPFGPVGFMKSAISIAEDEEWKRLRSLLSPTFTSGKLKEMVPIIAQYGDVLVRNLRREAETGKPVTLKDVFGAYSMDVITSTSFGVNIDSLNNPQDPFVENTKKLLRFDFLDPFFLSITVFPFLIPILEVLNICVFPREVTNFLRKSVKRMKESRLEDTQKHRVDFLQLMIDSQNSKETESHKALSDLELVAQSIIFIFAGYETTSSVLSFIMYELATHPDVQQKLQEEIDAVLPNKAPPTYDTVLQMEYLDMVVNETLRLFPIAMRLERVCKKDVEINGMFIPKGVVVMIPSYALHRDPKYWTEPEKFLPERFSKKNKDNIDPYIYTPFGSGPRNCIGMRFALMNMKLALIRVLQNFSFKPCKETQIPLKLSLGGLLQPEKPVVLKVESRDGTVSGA
T3 sequence (P33261 whole entry): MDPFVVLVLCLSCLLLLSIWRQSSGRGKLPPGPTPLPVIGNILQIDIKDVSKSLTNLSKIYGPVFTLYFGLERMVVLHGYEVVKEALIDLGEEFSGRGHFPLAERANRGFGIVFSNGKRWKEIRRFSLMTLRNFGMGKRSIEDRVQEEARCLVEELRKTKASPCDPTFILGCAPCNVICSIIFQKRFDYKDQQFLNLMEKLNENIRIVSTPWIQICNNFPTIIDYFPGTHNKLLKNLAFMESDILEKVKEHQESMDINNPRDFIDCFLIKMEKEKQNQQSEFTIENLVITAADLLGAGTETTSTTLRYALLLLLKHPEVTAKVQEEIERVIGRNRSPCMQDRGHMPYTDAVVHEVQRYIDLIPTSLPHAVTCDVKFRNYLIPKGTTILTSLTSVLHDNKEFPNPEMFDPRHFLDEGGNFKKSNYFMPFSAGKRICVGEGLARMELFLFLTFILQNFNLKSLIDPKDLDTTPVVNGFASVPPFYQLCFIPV
T4 sequence (P10635 whole entry): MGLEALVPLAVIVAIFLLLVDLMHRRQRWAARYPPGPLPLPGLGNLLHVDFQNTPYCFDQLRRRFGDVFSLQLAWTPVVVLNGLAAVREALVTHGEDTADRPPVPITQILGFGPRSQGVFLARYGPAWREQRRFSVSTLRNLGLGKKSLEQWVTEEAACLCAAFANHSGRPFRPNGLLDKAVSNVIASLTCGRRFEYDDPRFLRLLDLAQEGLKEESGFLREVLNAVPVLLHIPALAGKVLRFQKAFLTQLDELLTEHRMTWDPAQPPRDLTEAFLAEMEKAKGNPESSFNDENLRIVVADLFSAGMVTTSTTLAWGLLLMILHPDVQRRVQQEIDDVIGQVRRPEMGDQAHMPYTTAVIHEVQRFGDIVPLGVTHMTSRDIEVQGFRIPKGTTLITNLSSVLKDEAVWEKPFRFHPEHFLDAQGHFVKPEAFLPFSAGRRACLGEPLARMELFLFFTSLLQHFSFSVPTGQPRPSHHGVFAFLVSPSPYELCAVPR

SMILES: O=C(O)COc1ccc(C(=O)c2cccs2)c(Cl)c1Cl [tienilic acid]
- inhibition at 15 min [1]: 7%

SMILES: CCC1NC(=O)C([C@H](O)[C@H](C)CCCCCCNC(C)=O)N(C)C(=O)C(C(C)C)N(C)C(=O)[C@H](CC(C)C)N(C)C(=O)[C@H](CC(C)C)N(C)C(=O)C(C)NC(=O)[C@H](C)NC(=O)C(CC(C)C)N(C)C(=O)[C@H](C(C)C)NC(=O)[C@H](CC(C)C)N(C)C(=O)C(C)N(C)C1=O (stereo in doubt) [CRV431]
- Biotransformation of CRV431 ([2]; 1 and 10 μM, 1 mg protein/mL, after 60 min incubation, with NADPH-generating system): nearly complete
- Biotransformation of CRV431 ([2]; absence of microsomal proteins and the NADPH-generating system, same time period): no biotransformation
- Disappearance of CRV431 [3]: 19%
- Disappearance of CRV431 [4]: 17%
- Disappearance of CRV431 [5]: 32%
- Disappearance of CRV431 ([6]; CRV431 1 μM): 64%
- Loss of CRV431 ([6]; CRV431 10 μM): 41%
- Loss of CRV431 [7]: 24%
- Substrate loss [8]: less than 15%
- % of Total Drug-Related Mass Versus Time (minutes) 0 min ([9]; 0 min, 1 ug/mL): 96.4%
- % of Total Drug-Related Mass Versus Time (minutes) 10 min ([9]; 10 min, 1 ug/mL): 57.0%
- % of Total Drug-Related Mass Versus Time (minutes) 20 min ([9]; 20 min, 1 ug/mL): 27.5%
- % of Total Drug-Related Mass Versus Time (minutes) 40 min ([9]; 40 min, 1 ug/mL): 10.4%
- % of Total Drug-Related Mass Versus Time (minutes) 80 min ([9]; 80 min, 1 ug/mL): 4.0%
- Amount of CRV431 remaining ([9]; 10 min): 71.8%
- Amount of CRV431 remaining ([9]; 80 min): 5.3%
- Rate of CRV431 metabolism in monkey liver microsomes, greater than in human microsomes ([10]; monkey relative to human liver microsomes): at least five-fold
- % of Total Drug-Related Mass Versus Time (minutes) 0 min ([10]; monkey, 0 min, 1 ug/mL, pH 7.4): 96.3%
- % of Total Drug-Related Mass Versus Time (minutes) 2.5 min ([10]; monkey, 2.5 min, 1 ug/mL, pH 7.4): 59.4%
- % of Total Drug-Related Mass Versus Time (minutes) 5 min ([10]; monkey, 5 min, 1 ug/mL, pH 7.4): 21.5%
- % of Total Drug-Related Mass Versus Time (minutes) 10 min ([10]; monkey, 10 min, 1 ug/mL, pH 7.4): 12.3%
- % of Total Drug-Related Mass Versus Time (minutes) 20 min ([10]; monkey, 20 min, 1 ug/mL, pH 7.4): 4.3%
- % of Total Drug-Related Mass Versus Time (minutes) 40 min ([10]; monkey, 40 min, 1 ug/mL, pH 7.4): 6.6%
- % of Total Drug-Related Mass Versus Time (minutes) 80 min ([10]; monkey, 80 min, 1 ug/mL, pH 7.4): 6.7%
- Amount of CRV431 remaining ([10]; monkey, microsomes, 10 min, 1 μg/mL, pH 7.4): 13.2%
- % of Total Drug-Related Mass Versus Time (minutes) 0 min ([11]; 0 min, 1 ug/mL): 96.2%
- % of Total Drug-Related Mass Versus Time (minutes) 10 min ([11]; 10 min, 1 ug/mL): 95.4%
- % of Total Drug-Related Mass Versus Time (minutes) 20 min ([11]; 20 min, 1 ug/mL): 94.6%
- % of Total Drug-Related Mass Versus Time (minutes) 40 min ([11]; 40 min, 1 ug/mL): 93.6%
- % of Total Drug-Related Mass Versus Time (minutes) 80 min ([11]; 80 min, 1 ug/mL): 92.3%
- Amount of CRV431 remaining ([11]; microsomes, 80 min, 1 μg/mL): 92.3%
- Disappearance of CRV431 ([12]; CRV431 1 μM): 27%
- Loss of CRV431 ([12]; CRV431 10 μM): 27%

SMILES: COc1ccc2nc([S@@+]([O-])Cc3ncc(C)c(OC)c3C)[nH]c2c1 [esomeprazole]
- inhibition at 15 min [13]: 37%

From article PMC5750657, “In Vitro Phase I Metabolism of CRV431, a Novel Oral Drug Candidate for Chronic Hepatitis B” (Pharmaceutics, 2017)
